Measured values as given in patent US20250049036A1 (priority 2021, published 2025).

How the values were obtained:
Botrytis cinerea [1] = experiment: Botrytis cinerea test on tomato, preventive, greenhouse; type: in vivo; conditions: preventive spray on bean/chili plants (heading: tomato), inoculated one day after treatment, read-out: control (efficacy, disease severity) compared to the untreated check
Phakopsora pachyrhizi = Phakopsora pachyrhizi test on soybean, preventive, greenhouse; type: in vivo; conditions: preventive spray on soybean, inoculated one day after treatment, read-out: control (efficacy, disease severity) compared to the untreated check
Experimental: The respective compound was dissolved in 2% dimethyl sulfoxide/acetone and then mixed with water containing emulsifier to the calibrated spray volume of 30 mL. Each spray solution was poured into a spray bottle for further application.
To test the preventive activity of a compound, healthy young soybean plants, raised in the greenhouse, were sprayed with the active compound preparation at the stated application rate inside the spray cabinets using hollow cone nozzles. One day after treatment, the plants were inoculated with a conidial suspension containing 2×10^5 Phakopsora pachyrhizi inoculum. The inoculated plants were then kept in a greenhouse chamber at 22-24° C. temperature and 80-90% relative humidity for disease expression.

Botrytis cinerea [2] = experiment: Botrytis cinerea liq. (BOTRCI) spore growth inhibition in liquid medium, 96-well microtiter plate, OD 405 nm; type: cell-based; conditions: spore suspension in YBA liquid medium, 22° C., 5-6 days, OD at 405 nm, read-out: control compared to the untreated check
Experimental: (§1) Yeast bacterial peptone and sodium acetate (YBA) liquid medium containing a BOTRCI (10^4 spores/ml) spore suspension was prepared. For the inhibition assay, each test compound was solved in dimethyl sulfoxide. 100 μl of the test compound in media-solution was added to a 96-well microtiter plate, consequently, the same volume (100 μl) of spore suspension was added to the well making the final test concentrations and the plate was incubated at 22° C. for 5-6 days. The growth inhibition was evaluated by measuring the OD at 405 nm. Percent inhibition was calculated with the below formula:
Where T=treatment, C=control, and B=blank

Parastagonospora nodorum = Parastagonospora nodorum (PARANO) spore growth inhibition in liquid medium, 96-well microtiter plate, OD 600; type: cell-based; conditions: spore suspension in PDB liquid medium, 18° C., 5-6 days, OD at 600, read-out: control compared to the untreated check
Experimental: as §1, with “Potato dextrose (PDB)” for “Yeast bacterial peptone and sodium acetate (YBA)”, “medium (Difco)” for “medium”, “PARANO (10^5” for “BOTRCI (10^4”, “18°” for “22°”, “600.” for “405 nm.”, “formula: […]” for “formula:”

Pyricularia oryzae = experiment: microbe, parasite or virus in culture; type: cell-based; conditions: 168 h, read-out: control compared to the untreated check
Colletotrichum capsici = Colletotrichum capsici (anthracnose) mycelial radial growth on potato dextrose agar; type: cell-based; conditions: Colletotrichum truncatum, 168 h, 25° C., seven days, read-out: control compared to the untreated check
Experimental: The compounds were dissolved in 0.3% dimethyl sulfoxide and then added to potato dextrose agar medium just prior to dispensing it into petri dishes. 5 mL medium, with the compound in the desired concentration, was dispensed into 60 mm sterile petri-plates. After solidification, each plate was seeded with a 5 mm size mycelial disc taken from the periphery of an actively growing virulent culture plate. The plates were incubated in growth chambers at 25° C. temperature and 60% relative humidity for seven days and the radial growth was measured and compared to the one of the untreated control.

SMILES	pest or weed control at 500 ppm (Botrytis cinerea [1]) [%]	pest or weed control at 500 ppm (Phakopsora pachyrhizi) [%]	inhibition of growth at 300 ppm (Botrytis cinerea [2]) [%]	inhibition of growth at 300 ppm (Parastagonospora nodorum) [%]	inhibition of growth at 300 ppm (Pyricularia oryzae) [%]	inhibition of growth at 300 ppm (Colletotrichum capsici) [%]
CN(C(=O)c1cnc2c(c1)c(C1CC1)cn2C)C(C)(C)Cc1ccccc1 [Compound 57, 3-cyclopropyl-N,1-dimethyl-N-(2-methyl-1-phenylpropan-2-yl)-1H-pyrrolo[2,3-b] pyridine-5-carboxamide]	≥ 70	≥ 70				
Cn1cc(Br)c2cc(C(=O)NC(C)(C)COCc3cc(F)ccc3Cl)cnc21 [Compound 232, 3-bromo-N-(1-((2-chloro-5-fluorobenzyl)oxy)-2-methylpropan-2-yl)-1-methyl-1H-pyrrolo[2,3-b]pyridine-5-carboxamide]			≥ 70	≥ 70		
Cn1cc(C2CC2)c2cc(C(=O)NC(C)(C)Cc3ccccc3)cnc21 [Compound 54, 3-cyclopropyl-1-methyl-N-(2-methyl-1-phenylpropan-2-yl)-1H-pyrrolo[2,3-b] pyridine-5-carboxamide]	≥ 70	≥ 70				
CC(C)(COc1ccccn1)NC(=O)c1cc2c(nc1Cl)CCC2 [Compound 242, 2-chloro-N-(2-methyl-1-(pyridin-2-yloxy)propan-2-yl)-6,7-dihydro-5H-cyclopenta[b]pyridine-3-carboxamide]			≥ 70			
Cc1nc2c(ccn2C)cc1C(=O)NC(C)(Cc1ccccc1)CC(C)C (stereo not shown) [Compound 34, N-(2,4-dimethyl-1-phenylpentan-2-yl)-1,6-dimethyl-1H-pyrrolo[2,3-b]pyridine-5-carboxamide]		≥ 70		≥ 70	≥ 70	≥ 70
Cc1nc2[nH]ccc2cc1C(=O)NC1(Cc2ccccc2)CC1 [Compound 97, N-(1-benzylcyclopropyl)-6-methyl-1H-pyrrolo[2,3-b]pyridine-5-carboxamide]	≥ 70	≥ 70				
CC(C)(COC(=O)c1ccccc1C(F)(F)F)NC(=O)c1cnc2c(c1)CCCC2 [Compound 150, 2-methyl-2-(5,6,7,8-tetrahydroquinoline-3-carboxamido)propyl 2-(trifluoromethyl)benzoate]	≥ 70	≥ 70		≥ 70		
Cn1cc(F)c2cc(C(=O)NC(C)(C)Cc3ccc(Cl)cc3)cnc21 [Compound 66, N-(1-(4-chlorophenyl)-2-methylpropan-2-yl)-3-fluoro-1-methyl-1H-pyrrolo[2,3-b]pyridine-5-carboxamide]	≥ 70	≥ 70				
Cn1ccc2cc(C(=O)NC(C)(C)Cc3ccc(F)c(F)c3)cnc21 [Compound 23, N-(1-(3,4-difluorophenyl)-2-methylpropan-2-yl)-1-methyl-1H-pyrrolo[2,3-b]pyridine-5-carboxamide]		≥ 70		≥ 70	≥ 70	≥ 70
Cc1nc2[nH]ccc2cc1C(=O)NC(C)(Cc1ccccc1)CC(C)C (stereo not shown) [Compound 96, N-(2,4-dimethyl-1-phenylpentan-2-yl)-6-methyl-1H-pyrrolo[2,3-b]pyridine-5-carboxamide]	≥ 70	≥ 70				
Cn1ccc2cc(C(=O)NC(C)(C)Cc3ccc(Br)cc3)cnc21 [Compound 61, N-(1-(4-bromophenyl)-2-methylpropan-2-yl)-1-methyl-1H-pyrrolo[2,3-b]pyridine-5-carboxamide]	≥ 70					
CC(C)CC(C)(Cc1ccccc1)NC(=O)c1cnc2ccsc2c1 (stereo not shown) [Compound 29, N-(2,4-dimethyl-1-phenylpentan-2-yl)thieno[3,2-b] pyridine-6-carboxamide]		≥ 70			≥ 70	≥ 70
CC(Cc1ccccc1)(CC(F)(F)F)NC(=O)c1cnc2ccsc2c1 (stereo not shown) [Compound 25, N-(4,4,4-trifluoro-2-methyl-1-phenylbutan-2-yl)thieno[3,2-b] pyridine-6-carboxamide]		≥ 70		≥ 70	≥ 70	≥ 70
CCC(O)(CC)C(NC(=O)c1cnc2c(ccn2C)c1)c1ccccc1 (stereo not shown) [Compound 120, N-(2-ethyl-2-hydroxy-1-phenylbutyl)-1-methyl-1H-pyrrolo[2,3-b]pyridine-5-carboxamide]	≥ 70					
Cn1cc(Cl)c2cc(C(=O)NC(C)(C)COc3ccc(F)cn3)cnc21 [Compound 221, 3-chloro-N-(1-((5-fluoropyridin-2-yl)oxy)-2-methylpropan-2-yl)-1-methyl-1H-pyrrolo[2,3-b]pyridine-5-carboxamide]			≥ 70			
C=C(C)CC(C)(COc1ccc(F)cc1)NC(=O)c1cnc2ccsc2c1 (stereo not shown) [Compound 122, N-(1-(4-fluorophenoxy)-2,4-dimethylpent-4-en-2-yl)thieno[3,2-b] pyridine-6-carboxamide]	≥ 70					≥ 70
COc1cc(C(=O)OCC(C)(C)NC(=O)c2cnc3ccsc3c2)ccc1F [Compound 124, 2-methyl-2-(thieno[3,2-b]pyridine-6-carboxamido)propyl 4-fluoro-3-methoxybenzoate]	≥ 70			≥ 70	≥ 70	
Cn1cc(Br)c2cc(C(=O)NC(C)(C)Cc3ccccc3)cnc21 [Compound 46]	≥ 70	≥ 70			≥ 70	
CC(C)(Cc1ccccc1)NC(=O)c1cnc2c(c1)CCCC2 [Compound 45, N-(2-methyl-1-phenylpropan-2-yl)-5,6,7,8-tetrahydroquinoline-3-carboxamide]		≥ 70		≥ 70		≥ 70
Cn1ccc2cc(C(=O)NC3Cc4ccccc4C3)cnc21 [Compound 76, N-(2,3-dihydro-1H-inden-2-yl)-1-methyl-1H-pyrrolo[2,3-b] pyridine-5-carboxamide]	≥ 70	≥ 70				
Cc1nc2c(ccn2C)cc1C(=O)NC(C)(C)C(C)c1ccccc1F (stereo not shown) [Compound 35, N-(3-(2-fluorophenyl)-2-methylbutan-2-yl)-1,6-dimethyl-1H-pyrrolo[2,3-b]pyridine-5-carboxamide]	≥ 70	≥ 70				
Cn1cc(Br)c2cc(C(=O)NC(C)(C)Cc3ccccc3Cl)cnc21 [Compound 84, 3-bromo-N-(1-(2-chlorophenyl)-2-methylpropan-2-yl)-1-methyl-1H-pyrrolo[2,3-b]pyridine-5-carboxamide]	≥ 70	≥ 70				
Cn1ccc2cc(C(=O)NC(C)(C)Cc3ccc(F)cc3)cnc21 [Compound 74, N-(1-(4-fluorophenyl)-2-methylpropan-2-yl)-1-methyl-1H-pyrrolo[2,3-b]pyridine-5-carboxamide]	≥ 70					
CC(C)CC(C)(Cc1ccccc1F)NC(=O)c1cnc2c(ccn2C)c1 (stereo not shown) [Compound 36, N-(1-(2-fluorophenyl)-2,4-dimethylpentan-2-yl)-1-methyl-1H-pyrrolo[2,3-b]pyridine-5-carboxamide]				≥ 70	≥ 70	≥ 70
